| SMILES | melting point [°C] |
| --- | --- |
| Cc1cc(C2=CCC(c3ccc(O)cc3)CC2)cc(C)c1O (stereo not drawn) [Example 5 of Example A, 1-(3,5-dimethyl-4-hydroxyphenyl)-4-(4-hydroxyphenyl)-1-cyclohexene] | 224 |
| Cc1cc(C2CCC(c3ccc(O)cc3)CC2)ccc1O (stereo not drawn) [Example 1 of Example B, 4-(4′-(4″-hydroxyphenyl)cyclohexyl)-2-methyl-1-hydroxybenzene] | 159 |
| Cc1cc(-c2ccc(-c3ccc(O)cc3)cc2)cc(C)c1O [Example 2 of Example C, 4-hydroxy-3″,5″-dimethyl-4″-hydroxy-p-terphenyl] | 231 |
| CC(C)(C)c1cc(C2=CCC(c3ccc(O)cc3)CC2)ccc1O (stereo not drawn) [Example 4 of Example A, 1-(3-t-butyl-4-hydroxyphenyl)-4-(4-hydroxyphenyl)-1-cyclohexene] | 188 |
| Cc1cc(-c2ccc(-c3ccc(O)cc3)cc2)ccc1O [Example 1 of Example C, 4-hydroxy-3″-methyl-4″-hydroxy-p-terphenyl] | 251.4 |
| Cc1cc(C2=CCC(c3ccc(O)cc3)CC2)ccc1O (stereo not drawn) [Example 2 of Example A, 1-(3-methyl-4-hydroxyphenyl)-4-(4-hydroxyphenyl)-1-cyclohexene] | 201 |

Reference: patent US20040049086A1, “Diphenol and process for producing the same” (priority 2001, published 2004)
